From patent publication US20210317092A1 (BAYER PHARMA AKTIENGESELLSCHAFT, priority 2016, published 2021) come the findings set out here.

Where two headings read alike, the source gives them in different places.

As usually defined, the IC50 is the concentration at which inhibition is half-maximal.

For assay [1], the target named is T1, human Bradykinin B1 receptor (Homo sapiens, UniProt P46663).
T1 construct: host or cells: CHO-K1
T1 sequence (P46663 1-353): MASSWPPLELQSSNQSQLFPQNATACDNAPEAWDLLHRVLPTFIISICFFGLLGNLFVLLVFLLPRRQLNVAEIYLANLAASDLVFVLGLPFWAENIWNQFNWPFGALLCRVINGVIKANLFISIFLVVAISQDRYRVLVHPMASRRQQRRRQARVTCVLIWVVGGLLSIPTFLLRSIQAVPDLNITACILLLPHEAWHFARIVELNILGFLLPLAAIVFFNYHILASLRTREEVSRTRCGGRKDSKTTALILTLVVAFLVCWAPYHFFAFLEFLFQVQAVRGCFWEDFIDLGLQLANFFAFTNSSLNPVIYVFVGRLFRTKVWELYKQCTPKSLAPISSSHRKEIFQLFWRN
The assay can be described thus: Calcium flux Assay (FLIPR) with recombinant CHO-K1 cells expressing human Bradykinin B1 receptor, in presence (hB1 IC50) or absence (hB1 free IC50) of 0.1% BSA. The assay is classed as cell-based.

The target in assay [2] is T2, native human Bradykinin B1 receptor (Homo sapiens, UniProt P46663).
T2 construct: which express native human Bradykinin B1 receptor after induction with human IL-10; Coriell Institute; host or cells: IMR-90 human foetal lung fibroblasts, cytokine-induced
T2 sequence (P46663 1-353): T1 sequence (P46663 1-353)
The assay can be described thus: Calcium flux Assay (FLIPR) with human fibroblasts expressing Bradykinin B1 receptor (hB1 IMR-90). It is filed as cell-based. Particulars: IMR-90 human fibroblasts expressing native Bradykinin B1 receptor. As for the experimental part:
Calcium flux Assay (FLIPR) with human fibroblasts expressing Bradykinin B1 receptor (hB1 IMR-90)
The Calcium flux Assay was carried out utilising IMR-90 human foetal lung fibroblasts (American Type Culture Collection, Rockville, Md.; and Coriell Institute, Camden, N.J.), which express native human Bradykinin B1 receptor after induction with human […].
The fibroblasts were cultured in complete growth media comprised of Dulbecco's modified Eagle's medium (DMEM; Sigma) containing 10% foetal bovine serum, 4 mM L-glutamine, and 1% nonessential amino acids. The cells were maintained in a humidified atmosphere with 5% CO2 at 37° C. and were sub-cultured at a ratio of 1:3, every other day.
For the assay, IMR-90 fibroblasts were harvested using TrypLE Express (GIBCO/Invitrogen) and seeded into 384-well plates (Corning Cellbinding Surface, Cat. 3683) at a density of 15000 cells/well. The following day, cells were treated with 0.35 ng/mL human […] in 10% FBS/MEM for 3h to up-regulate Bradykinin B1 receptor. Induced cells were loaded with fluorescent calcium indicator by incubation with 2.5 μM Fluo-4/AM (Invitrogen) at 37° C., 5% CO2 for 2 h in the presence of 2.5 mM probenecid in 1% FBS/MEM. Extracellular dye was removed by washing with assay buffer (2.5 mM probenecid and 0.1% BSA in 20 mM HEPES/HBSS without bicarbonate or phenol red, pH 7.5). Compound examples were assayed at 8 concentrations in triplicate. After addition of compound examples to the cell plate and incubation for 30 min at 28° C., the addition of Bradykinin B1 agonist Lys-(Des-Arg)-Bradykinin (Bachem, Brackley) at a final concentration of EC90 was carried out on the FLIPR instrument while continuously monitoring Ca^2+-dependent fluorescence at 538 nm. A peptide antagonist Lys-(Des-Arg-Leu)-Bradykinin (Bachem, Brackley) at 20 µM was used to determine the full inhibition as control. IC50 values were determined by the same way described for the FLIPR assay with recombinant cells.

Setting [3] is: in absence of 0.1% BSA, read-out: hB1 free IC50.
[4] abbreviates: in presence of 0.1% BSA, read-out: hB1 IC50.

As for `COc1ccc(-c2ccc(NC(=O)C3(C4CCC(C)(C)CC4)CC3)cc2-c2nnn[nH]2)cc1OC` [Example 56, N-[3′,4′-dimethoxy-2-(1H-tetrazol-5-yl)biphenyl-4-yl]-1-(4,4-dimethyl-cyclohexyl) cyclopropane-carboxamide], the half-maximal inhibitory concentration (IC50) in assay [1] (setting [3]) amounted to 0.0153 µM; in assay [1] (setting [4]), 0.0217 µM; in assay [2], 0.0202 µM.

As for `CCOc1ccc(-c2ccc(NC(=O)C3(c4ccc(Cl)c(F)c4)CC3)cc2-c2nnn[nH]2)cn1` [Example 70, 1-(4-chloro-3-fluorophenyl)-N-[4-(6-ethoxypyridin-3-yl)-3-(1H-tetrazol-5-yl)phenyl] cyclopropane-carboxamide], the figures for the IC50 in assay [1] (setting [3]), in assay [1] (setting [4]) and in assay [2] were 0.00927 µM, 0.0125 µM and 0.006 µM, respectively.

`CCOc1ccc(-c2ccc(NC(=O)C3(c4ccc(C(F)(F)F)cc4F)CC3)cc2-c2nnn[nH]2)cn1` [Example 72, N-[4-(6-ethoxypyridin-3-yl)-3-(1H-tetrazol-5-yl)phenyl]-1-[2-fluoro-4-(trifluoromethyl)phenyl] cyclopropane-carboxamide]: the IC50 in assay [1] (setting [3]) stood at 0.00682 µM; in assay [1] (setting [4]), 0.0155 µM; in assay [2], 0.00572 µM.

Regarding `CCOc1ccc(-c2ccc(NC(=O)C3(c4cccc(Cl)c4F)CC3)cc2-c2nnn[nH]2)cn1` [Example 73, 1-(3-chloro-2-fluorophenyl)-N-[4-(6-ethoxypyridin-3-yl)-3-(1H-tetrazol-5-yl)phenyl] cyclopropane-carboxamide], the half-maximal inhibitory concentration (IC50) in assay [1] (setting [3]) came to 0.0139 µM; in assay [1] (setting [4]), 0.0162 µM; in assay [2], 0.00798 µM.

Take `CCOc1ccc(-c2ccc(NC(=O)C3(c4cc(F)cc(Cl)c4)CC3)cc2-c2nnn[nH]2)cn1` [Example 77, 1-(3-chloro-5-fluorophenyl)-N-[4-(6-ethoxypyridin-3 yl)-3-(1H-tetrazol-5-yl)phenyl] cyclopropane-carboxamide]: the IC50 in assay [1] (setting [3]) came to 0.0161 µM; in assay [1] (setting [4]), 0.024 µM; in assay [2], 0.0217 µM.

`CCOc1ccc(-c2ccc(NC(=O)C3(c4cc(Cl)ccc4F)CC3)cc2-c2nnn[nH]2)cn1` [Example 78, 1-(5-chloro-2-fluorophenyl)-N-[4-(6-ethoxypyridin-3-yl)-3-(1H-tetrazol-5-yl)phenyl] cyclopropane-carboxamide]: the 50% inhibitory concentration (IC50) was 0.0212 µM in assay [1] (setting [3]), 0.0245 µM in assay [1] (setting [4]) and 0.0158 µM in assay [2].

As to `CCOc1ccc(-c2ccc(NC(=O)C3(c4cccc(F)c4F)CC3)cc2-c2nnn[nH]2)cn1` [Example 79, 1-(2,3-difluorophenyl)-N-[4-(6-ethoxypyridin-3-yl)-3-(1H-tetrazol-5-yl)phenyl] cyclopropane-carboxamide], the figures for the IC50 in assay [1] (setting [4]) and in assay [2] were 0.0251 µM and 0.0247 µM, respectively.

For the compound `CCOc1ccc(-c2ccc(NC(=O)C3(c4cccc(F)c4)CC3)cc2-c2nnn[nH]2)cn1` [Example 80, N-[4-(6-ethoxypyridin-3-yl)-3-(1H-tetrazol-5-yl)phenyl]-1-(3-fluorophenyl) cyclopropane-carboxamide], the IC50 in assay [1] (setting [3]) stood at 0.0296 µM; in assay [1] (setting [4]) it was 0.0256 µM; in assay [2], 0.0272 µM.

Turning to `CCOc1ccc(-c2ccc(NC(=O)C3(c4ccc(F)cc4)CC3)cc2-c2nnn[nH]2)cn1` [Example 81, N-[4-(6-ethoxypyridin-3-yl)-3-(1H-tetrazol-5-yl)phenyl]-1-(4-fluorophenyl) cyclopropane-carboxamide], the IC50 in assay [1] (setting [3]) came to 0.0291 µM; in assay [1] (setting [4]), 0.0275 µM; in assay [2], 0.0212 µM.

`CCOc1ccc(-c2ccc(NC(=O)C3(c4ccc(F)c(F)c4)CC3)cc2-c2nnn[nH]2)cn1` [Example 82, 1-(3,4-difluorophenyl)-N-[4-(6-ethoxypyridin-3-yl)-3-(1H-tetrazol-5-yl)phenyl] cyclopropane-carboxamide]: the IC50 turned out to be 0.0291 µM in assay [1] (setting [3]), 0.0333 µM in assay [1] (setting [4]) and 0.0149 µM in assay [2].
